Where “and” joins values, the source holds several entries; their conditions need not be identical. Equal values may be shown once. A value given as a limit tells only on which side of the number the result lay.

In one series the test system is Anas platyrhynchos. To be noted: short-term; oral; feed; mortality.
The next series has as its system Apis mellifera. To be noted: acute, duration: 48 hours, mortality.
The next series relates to Daphnia magna. To be noted: chronic/long-term; duration: 22 days; reproduction.
The test system of a further series is Lepomis macrochirus. To be noted: acute; duration: 96 hours; mortality.
A further series deals with Tagia sp. To be noted: acute; duration: 14 days; mortality.
Another series concerns Typhlodromus pyri. To be noted: chronic/long-term; duration: 14 days; reproduction.

The term LOAEL denotes the lowest dose or exposure tested at which an adverse effect was seen. One may read the NOAEL as the highest dose or exposure tested at which no adverse effect was seen. For `CSC(=O)c1cccc2nnsc12` [Acibenzolar-S-methyl], the LC50 was > 1540 mg/kg-day with Anas platyrhynchos; 2.8 µg/mL and 1.6 µg/mL with Lepomis macrochirus; 0.4 µg/mL and 1.1 µg/mL and 0.88 µg/mL in the series with Oncorhynchus mykiss (acute, duration: 96 hours, mortality); > 500 mg/kg in the series with Tagia sp.. The LD50 in the series with Apis mellifera (dermal) is > 100 µg/piece; in the series on Apis mellifera (oral, unspecified) it was 128 µg/piece; in the series on Colinus virginianus (acute, oral, mortality), > 2000 mg/kg; in the series on Rattus norvegicus (acute, oral, mortality), > 2000 mg/kg. Further, the NOEC in the series with Colinus virginianus (reproduction developmental, reproduction) is 61 mg/kg-day; with Daphnia magna, 44 µg/L; with Oncorhynchus mykiss (chronic/long-term, duration: 87 days), 26 µg/L. In the series with Rattus norvegicus (reproduction developmental, body weight), this compound had an LOAEL of 10 mg/kg-day. Also, the no-observed-adverse-effect level (NOAEL) in the series with Rattus norvegicus (reproduction developmental, oral, diet) came out at 15 mg/kg-day. In addition, the LEL with Typhlodromus pyri came out at 30 g/ha.
